Assay results taken from paper PMC9267955, “Antidiabetic, Antiglycation, and Antioxidant Activities of Ethanolic Seed Extract of Passiflora edulis and Piceatannol In Vitro” (Molecules, 2022).
Marks after values point to notes of the source that are not given here.

Assays:
AML-12 cells [1] = assay: Intracellular ROS level (DCFH-DA) after NNKOAc; format: cell-based, mouse; conditions: 50 µg/mL, 3 h pretreatment; NNKOAc 100 µM
Procedure: (§1) The generation of intracellular ROS in BEAS-2B, AML-12, and MCF-10A cells after treatments was measured as described previously. Briefly, DCFH-DA dye was readily taken up by cells and is subsequently hydrolyzed to DCFH, which can be oxidized to a measurable fluorescent product dichlorofluorescein (DCF). […] Cells with DMSO media (0.5%) served as the vehicle control. After treatments, DCFH-DA was added to the cell culture plates at a final concentration of 5 μM followed by 40 min incubation at dark. The fluorescence […] was then measured at an excitation and emission wavelength of 485 nm and 535 nm, using a microplate reader (Infinite® 200 PRO, TECAN, Männedorf, Switzerland).
(§2) BEAS-2B, MCF10-A, and AML-12, cells were purchased from the American Tissue Type Culture Collection (ATCC; CRL-9609, CRL-10317, and CRL-2254) and cultured with a specific medium. BEAS-2B cells were cultured with LHC-9 media at 37 °C in an incubator with 5% CO2. Culture flasks (polystyrene T75) were pre-coated with a mixture of 0.01 mg/mL fibronectin, 0.03 mg/mL bovine collagen type I, and 0.01 mg/mL bovine serum albumin were dissolved in LHC-9 medium overnight. […]

[2] = target: T1, DPP-4 human recombinant enzyme (Homo sapiens, UniProt P27487); assay: DPP-4 inhibition assay; format: biochemical; conditions: mean ± SD, triplicates
T1 construct: purchased Sigma-Aldrich (Oakville, ON, Canada)
T1 sequence (P27487 whole entry): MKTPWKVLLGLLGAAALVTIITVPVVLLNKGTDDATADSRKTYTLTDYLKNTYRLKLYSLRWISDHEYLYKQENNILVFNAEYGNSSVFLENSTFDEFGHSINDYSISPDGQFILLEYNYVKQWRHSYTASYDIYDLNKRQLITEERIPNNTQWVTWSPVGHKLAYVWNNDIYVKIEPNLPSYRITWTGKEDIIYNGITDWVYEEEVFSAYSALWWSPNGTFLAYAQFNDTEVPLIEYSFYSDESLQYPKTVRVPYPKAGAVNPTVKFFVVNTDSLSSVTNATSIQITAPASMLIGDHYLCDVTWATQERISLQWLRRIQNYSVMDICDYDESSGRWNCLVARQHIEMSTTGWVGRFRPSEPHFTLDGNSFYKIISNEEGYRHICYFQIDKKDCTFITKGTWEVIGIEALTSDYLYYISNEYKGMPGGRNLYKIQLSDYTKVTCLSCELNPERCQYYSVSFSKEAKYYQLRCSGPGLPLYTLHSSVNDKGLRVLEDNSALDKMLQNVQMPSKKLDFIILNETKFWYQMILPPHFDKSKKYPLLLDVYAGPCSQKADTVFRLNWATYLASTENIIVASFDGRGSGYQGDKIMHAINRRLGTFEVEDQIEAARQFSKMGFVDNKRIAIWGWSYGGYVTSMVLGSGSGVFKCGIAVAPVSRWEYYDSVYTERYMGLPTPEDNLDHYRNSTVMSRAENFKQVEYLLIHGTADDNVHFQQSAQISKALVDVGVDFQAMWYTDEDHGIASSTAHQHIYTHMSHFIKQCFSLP
Procedure: The DPP-4 inhibition assay was performed according to an established method. […] The reaction mixture was incubated for 30 min in the dark at 37 °C. Then, the fluorescent product was recorded at excitation/emission wavelengths of 350/450 nm using the microplate reader (Infinite® 200 PRO, TECAN, Männedorf, Switzerland). […] The percentage of the DPP-4 inhibition and IC50 was calculated as described in Section 3.3.1.

[3] = Superoxide anion radical scavenging activity
Procedure: The potential of the samples to scavenger superoxide anion radicals was determined, with minor modifications. […] Phosphate buffer (19 mM, pH 7.4) was used to dissolve NADH, NBT, and PMS. QCT was used as means of comparison. The experiment was conducted at 37 °C in a microplate reader (Infinite® 200 PRO, TECAN, Männedorf, Switzerland), and the absorbance was measured at 560 nm. The results were expressed as IC50 of extract solution in μg/mL.

AML-12 cells [4] = assay: MTS cell viability assay; format: cell-based, mouse; conditions: up to 250 µg/mL; 24 h
Procedure: BEAS-2B, MCF10-A, and AML-12, cells were purchased from the American Tissue Type Culture Collection (ATCC; CRL-9609, CRL-10317, and CRL-2254) and cultured with a specific medium. BEAS-2B cells were cultured with LHC-9 media at 37 °C in an incubator with 5% CO2. […] Cells were grown to around 70% confluence on the culture flask, and passages (<10) were employed for all experimental conditions. MTS Cell Titer 96™ aqueous cell proliferation assay was used to determine cell viability. […] For that, 1 × 10^4 cells were plated on a 96-well plate with a growth medium of 100 μL/well. […] Fifteen microliters of MTS reagent (with PMS) was then added to each well and incubated for 3 h in the dark. Absorbance was recorded at 490 nm using a microplate reader (Infinite® 200 PRO, TECAN, Männedorf, Switzerland). For each experiment, cells with DMSO media served as control, and cells with only culture medium and MTS reagent served as the blank.

BEAS-2B cells = assay: Intracellular ROS level (DCFH-DA) after NNKOAc; format: cell-based, human
Procedure: as §1, §2

BSA/MGO fluorescent AGEs = assay: Inhibition of AGE formation, intermediate stage of glycation (BSA/MGO); format: biochemical, bovine; conditions: BSA/MGO model
Procedure: The BSA-MGO assay was based on those described before, with some modifications. This experiment is based on the formation of fluorescent AGEs from the middle stage of protein glycation. MGO (1.5 mM) and BSA (3 mg/mL) were dissolved separately in 0.05 M phosphate buffer (pH 7.4) containing NaCl (100 mM) and NaN3 (0.02% w/v). Then, 300 μL of MGO was incubated with samples at different concentrations (dissolved in a buffer containing 60% ethanol) for an hour at 37 °C, in the dark, with constant stirring. After BSA (3 mg/mL) was added to the reaction mixture and incubation time was extended to 48 h at 37 °C in darkness. The rest of the procedure was the same as that for the BSA-glucose/fructose model that is described above. The percentage of the AGE inhibition and IC50 was calculated as described in Section 3.3.1.

## Oc1cc(O)cc(/C=C/c2ccc(O)c(O)c2)c1 [PIC, 3,3′,4′,5-trans-tetrahydroxystilbene]
AML-12 cells [1]
  Protection from oxidative stress (ROS) caused by the carcinogen, AML-12: able to protect
[2]
  IC50: 4.66 mM
[3]
  O2•− IC50: 7.3 ± 0.02 µg/mL
[3]; data in parenthesis are in μM, read-out: O2•− IC50 (in parenthesis) (converted)
  IC50: 30.1 µM
AML-12 cells [4]
  Viability of AML-12 cells: maintained
BEAS-2B cells; 50 µg/mL, 3 h pretreatment, NNKOAc 100 µM
  Protection from oxidative stress (ROS) caused by the carcinogen, BEAS-2B: able to protect
BEAS-2B cells; NNKOAc at 100 µM, abstract, cell line and concentration not specified
  Protection of cultured human cells from oxidative stress caused by NNKOAc: capable of protecting
BSA/MGO fluorescent AGEs
  Antiglycation IC50, MGO: 67.4 ± 4.6 ^b μg/mL
